The values below come from patent US20250179059A1 (The Regents of the University of California, priority 2021, published 2025).

The subject of assay [1] is human SKM-1 acute myeloid leukemia cells. The assay is described as follows: SKM-1 antiproliferation cell-based assay (ATPlite). In outline: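 Log-phase cells in RPMI 1640/15% FBS were seeded at 34722 cells/mL and exposed for 4 days to nine-concentration DMSO serial dilutions in triplicate. Viability was read as ATP luminescence (ATPlite 1step), and IC50 values came from variable-slope non-linear regression.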

For assay [2], the target named is T1, human BRD4 bromodomain II (Homo sapiens, UniProt O60885).
T1 construct: human BRD4 bromodomain II [based on Genbank NM_058243, residues 349-460]; host or cells: E. coli
The assay is described as follows: Bromodomain binding assay (AlphaScreen), BRD4 BDII. The essentials:
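E. coli-expressed N-terminal His6-tagged human BRD4 BDII (residues 349-460) or BDI (residues 44-170) was preincubated 30 min at room temperature with compound (10-point, 3-fold) in pH 7.5 HEPES buffer, 1% DMSO. Displacement of biotinylated tetra-acetylated H4 1-21 peptide was read by AlphaScreen, and IC50 came from curve fitting.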

Setting [3] is: Homo sapiens, SKM-1, 96 h, SKM-1 antiproliferation assay, 4 days, Table C2.
Where [4] appears, read: AlphaScreen assay, Table C2, read-out: BRD4 BDII IC50.
Where [5] appears, read: Homo sapiens, SKM-1, SKM-1 antiproliferation assay.
The mark [6] stands for this setting: BRD4 BDII AlphaScreen assay, read-out: BRD4 BD2 IC50.

Where two headings read alike, the source gives them in different places.

`C[C@@H]1CN(c2cc(-c3cc(Cl)cc(-c4ccc(-n5ccn(C)c5=O)c(Cl)c4)c3O)ccn2)CCN1` [Example 540, (R)-1-(3,5′-dichloro-2′-hydroxy-3′-(2-(3-methylpiperazin-1-yl)pyridin-4-yl)-[1,1′-biphenyl]-4-yl)-3-methyl-1H-imidazol-2(3H)-one]: the 50% growth inhibitory concentration (GI50) in assay [1] (setting [3]) is 0.3 to 30 nM. Also, the half-inhibitory concentration (IC50) in assay [2] (setting [4]) was in the range of 1 to 10 nM.
`Cn1cc(-c2cccc(N3CCN(C(C)(C)C)CC3)c2)c(O)c(-c2ccc(-n3ccn(C)c3=O)c(Cl)c2)c1=O` [Example 1030, 5-(3-(4-(tert-Butyl)piperazin-1-yl)phenyl)-3-(3-chloro-4-(3-methyl-2-oxo-2,3-dihydro-1H-imidazol-1-yl)phenyl)-4-hydroxy-1-methylpyridin-2(1H)-one]: the GI50 in assay [1] (setting [5]) is 300 to 3000 nM. In addition, in assay [2] (setting [6]), the IC50 was in the range of 10 to 100 nM.
On to `CN1CCN(c2ccc(-c3cc(F)cc(-c4cnc(C#N)c(N5CCNCC5)c4)c3O)cc2Cl)C1=O` [Example 357, 5-(3′-chloro-5-fluoro-2-hydroxy-4′-(3-methyl-2-oxoimidazolidin-1-yl)-[1,1′-biphenyl]-3-yl)-3-(piperazin-1-yl)picolinonitrile], for which, in assay [1] (setting [3]), the GI50 was in the range of 30 to 300 nM. The half-inhibitory concentration (IC50) in assay [2] (setting [4]) fell in the range of 1 to 10 nM.
`Cn1ccn(-c2ccc(-c3cc(F)cc(-c4ccnc(N5CC(C)(O)C(F)(F)C5)c4)c3O)cc2Cl)c1=O` (centres unmarked) [Example 861] registered a GI50 in assay [1] (setting [5]) of 0.3 to 30 nM. In addition, in assay [2] (setting [6]), the IC50 was in the range of 1 to 10 nM.
For `CCc1ncc(-c2cc(F)cc(-c3ccc(-n4ccn(C)c4=O)c(Cl)c3)c2O)cc1N1CCN(C(C)(C)C)CC1` [Example 848, 1-(3′-(5-(4-(tert-butyl)piperazin-1-yl)-6-ethylpyridin-3-yl)-3-chloro-5′-fluoro-2′-hydroxy-[1,1′-biphenyl]-4-yl)-3-methyl-1H-imidazol-2(3H)-one], the GI50 in assay [1] (setting [3]) lay in the range of 0.3 to 30 nM. Moreover, the IC50 in assay [2] (setting [4]) lay in the range of 10 to 100 nM.
On to `CC(=O)Nc1cc(-c2cc(F)cc(-c3ccc(-n4ccn(C)c4=O)c(Cl)c3)c2O)cc(N2CCNCC2)n1` [Example 442, N-(4-(3′-chloro-5-fluoro-2-hydroxy-4′-(3-methyl-2-oxo-2,3-dihydro-1H-imidazol-1-yl)-[1,1′-biphenyl]-3-yl)-6-(piperazin-1-yl)pyridin-2-yl)acetamide], for which, in assay [1] (setting [3]), the GI50 lay in the range of 0.3 to 30 nM. Also, the IC50 in assay [2] (setting [4]) was 0.01 to 1 nM.
The compound `CC(C)N1CCN(c2cc(-c3cc(F)cc(-c4ccc(-n5ccn(C)c5=O)c(Cl)c4)c3O)ccc2F)CC1` [Example 720, 1-(3-chloro-4″,5′-difluoro-2′-hydroxy-3″-(4-isopropylpiperazin-1-yl)-[1,1′:3′,1″-terphenyl]-4-yl)-3-methyl-1H-imidazol-2(3H)-one] registered a GI50 in assay [1] (setting [3]) of 0.3 to 30 nM. In addition, the IC50 in assay [2] (setting [4]) lay within 0.01 to 1 nM.
The matching figures for `Cn1nnn(-c2ccc(-c3cc(F)cc(-c4ccnc(N5CCNCC5)c4)c3O)cc2Cl)c1=O` [Example 520, 1-(3-chloro-5′-fluoro-2′-hydroxy-3′-(2-(piperazin-1-yl)pyridin-4-yl)-[1,1′-biphenyl]-4-yl)-^4-methyl-1H-tetrazol-5(4H)-one]: 300 to 3000 nM and 10 to 100 nM.
`Cn1ccn(-c2ccc(-c3cc(F)cc(-c4ccnc(N5CC(N)C6(CC6)C5)c4)c3O)cc2Cl)c1=O` (centres unmarked) [Example 755, 1-(3′-(2-(7-amino-5-azaspiro[2.4]heptan-5-yl)pyridin-4-yl)-3-chloro-5′-fluoro-2′-hydroxy-[1,1′-biphenyl]-4-yl)-3-methyl-1H-imidazol-2(3H)-one] registered a GI50 in assay [1] (setting [3]) of 0.3 to 30 nM. Further, the IC50 in assay [2] (setting [4]) fell in the range of 0.01 to 1 nM.
Compound `C[C@@H]1CN(c2cc(-c3cc(F)cc(-c4ccc(-n5ccn(C)c5=O)c(Cl)c4)c3O)cc3[nH]ncc23)CCN1` [Example 543, (R)-1-(3-chloro-5′-fluoro-2′-hydroxy-3′-(4-(3-methylpiperazin-1-yl)-1H-indazol-6-yl)-[1,1′-biphenyl]-4-yl)-3-methyl-1H-imidazol-2(3H)-one] gave a GI50 in assay [1] (setting [3]) of 0.3 to 30 nM. The IC50 in assay [2] (setting [4]) is 0.01 to 1 nM.
`Cn1ccn(-c2ccc(-c3cc(F)cc(-c4ccc(Cl)c(N5CCN(C(C)(C)C)CC5)c4)c3O)cc2Cl)c1=O` [Example 809, 1-(3″-(4-(tert-butyl)piperazin-1-yl)-3,4″-dichloro-5′-fluoro-2′-hydroxy-[1,1′:3′,1″-terphenyl]-4-yl)-3-methyl-1H-imidazol-2(3H)-one] gave a concentration for 50% growth inhibition (GI50) in assay [1] (setting [3]) of 0.3 to 30 nM. Also, in assay [2] (setting [4]), the IC50 lay in the range of 1 to 10 nM.
The matching figures for `CC(C)N1CCN(c2cc(-c3cc(F)cc(-c4ccc(-n5ccn(C)c5=O)c(Cl)c4)c3O)cc3c2cnn3C)CC1` [Example 672, 1-(3-chloro-5′-fluoro-2′-hydroxy-3′-(4-(4-isopropylpiperazin-1-yl)-1-methyl-1H-indazol-6-yl)-[1,1′-biphenyl]-4-yl)-3-methyl-1H-imidazol-2(3H)-one]: 0.3 to 30 nM and 0.01 to 1 nM.
The compound `Cn1ccn(-c2ccc(-c3cc(F)cc(-c4cccc(N5CCN(C(C)(C)C)CC5=O)c4)c3O)cc2Cl)c1=O` [Example 901] yielded a GI50 in assay [1] (setting [5]) of 30 to 300 nM. Also, in assay [2] (setting [6]), the IC50 is 0.01 to 1 nM.
In assay [1] (setting [3]), `Cn1ccn(-c2ccc(-c3cc(F)cc(-c4cncc(N5CC[C@@](C)(O)C5)c4)c3O)cc2Cl)c1=O` [Example 728, (R)-1-(3-chloro-5′-fluoro-2′-hydroxy-3′-(5-(3-hydroxy-3-methylpyrrolidin-1-yl)pyridin-3-yl)-[1,1′-biphenyl]-4-yl)-3-methyl-1H-imidazol-2(3H)-one] had a concentration for 50% growth inhibition (GI50) of 0.3 to 30 nM. In addition, in assay [2] (setting [4]), the IC50 lay in the range of 1 to 10 nM.
With `CC(C)N1C2CCC1CN(c1cncc(-c3cc(F)cc(-c4ccc(-n5ccn(C)c5=O)c(Cl)c4)c3O)c1)C2` [Example 740, 1-(3-chloro-5′-fluoro-2′-hydroxy-3′-(5-(8-isopropyl-3,8-diazabicyclo[3.2.1]octan-3-yl)pyridin-3-yl)-[1,1′-biphenyl]-4-yl)-3-methyl-1H-imidazol-2(3H)-one], in assay [1] (setting [3]), the GI50 is 0.3 to 30 nM. Moreover, the IC50 in assay [2] (setting [4]) is 0.01 to 1 nM.
With `Cc1cc(-c2ccc(-n3ccn(C)c3=O)c(F)c2)c(O)c(-c2cccc(N3CCN(C(C)(C)C)CC3)c2)n1` [Example 1003, 1-(4-(2-(3-(4-(tert-butyl)piperazin-1-yl)phenyl)-3-hydroxy-6-methylpyridin-4-yl)-2-fluorophenyl)-3-methyl-1H-imidazol-2(3H)-one], the concentration for 50% growth inhibition (GI50) in assay [1] (setting [5]) was in the range of 0.3 to 30 nM. Besides, the IC50 in assay [2] (setting [6]) was in the range of 1 to 10 nM.
Compound `Cc1cc(-c2cc(F)cc(-c3ccnc(N4CCNCC4)c3)c2O)cc(Cl)c1N1CCN(C)C1=O` [Example 385, 1-(3-chloro-5′-fluoro-2′-hydroxy-5-methyl-3′-(2-(piperazin-1-yl)pyridin-4-yl)-[1,1′-biphenyl]-4-yl)-3-methylimidazolidin-2-one] registered a GI50 in assay [1] (setting [3]) of 300 to 3000 nM. Moreover, the IC50 in assay [2] (setting [4]) was > 100 nM.
Turning to `Cc1cc(-c2ccc(-n3ccn(C)c3=O)c(Cl)c2)c(O)c(-c2cc(N3CCN(C(C)(C)C)CC3)c3nccn3c2)n1` [Example 989, 1-(4-(2-(8-(4-(tert-butyl)piperazin-1-yl)imidazo[1,2-a]pyridin-6-yl)-3-hydroxy-6-methylpyridin-4-yl)-2-chlorophenyl)-3-methyl-1H-imidazol-2(3H)-one], in assay [1] (SKM-1 antiproliferation assay), the GI50 was 0.3 to 30 nM. In assay [2] (setting [6]), the IC50 lay in the range of 1 to 10 nM.
For the compound `Cc1cc(-c2ccc(-n3ccn(C)c3=O)c(C)c2)c(O)c(-c2cnc(C)c(N3CCN(C(C)(C)C)CC3)c2)n1` [Example 1019, 1-(4-(5′-(4-(tert-Butyl)piperazin-1-yl)-3-hydroxy-6,6′-dimethyl-[2,3′-bipyridin]-4-yl)-2-methylphenyl)-3-methyl-1,3-dihydro-2H-imidazol-2-one], the GI50 in assay [1] (setting [5]) was in the range of 0.3 to 30 nM. Moreover, in assay [2] (setting [6]), the concentration for half-maximal inhibition (IC50) lay in the range of 1 to 10 nM.
